One may read the melting point as the temperature of the solid-liquid transition.

With `CCN1C(=O)C(C)(C)C(=O)N(C)c2cc(OCCCN(CCc3cccnc3)C(=O)c3ccncc3)ccc21` [Example 459, N-[3-(1-ethyl-3,3,5-trimethyl-2,4-dioxo-2,3,4,5-tetrahydro-1H-benzo[b][1,4]diazepin-7-yloxy)propyl]-N-(2-pyridin-3-ylethyl)isonicotinamide], the melting point was in the range of 88.1 to 92.2 °C.

Values taken from patent US8664217B2, “Benzodiazepine compound and pharmaceutical composition” (Otsuka Pharmaceutical Co., Ltd., priority 2008, dated 2014).
